Assay results as given in patent US20210283261A1, “Compositions and Methods for Treating ALK-Mediated Cancer” (ICAHN SCHOOL OF MEDICINE AT MOUNT SINAI, priority 2017, published 2021).

Assays:
NPM-ALK fusion protein = target: T1, NPM-ALK fusion protein (Homo sapiens, UniProt Q9UM73); assay: Western blot of NPM-ALK fusion protein levels in SU-DHL-1 cells; format: cell-based; details: for effect on NPM-ALK fusion protein levels, time dependence: SU-DHL-1 cells, 0, 2, 4, 8, 16 and 24 h; for Dmax at 0.03 µM / reversibility of induced ALK fusion protein degradation after washout / rescue of induced NPM-ALK degradation by pomalidomide, MLN4924 and MG-132 / rescue of induced ALK fusion protein degradation by MG-132 and MLN4924 / significantly reduced ALK fusion protein levels (degraders vs negative controls): SU-DHL-1 cells; for Dmax at 0.03 µM: 30 nM, Western blot, read-out: ALK fusion protein degradation, SU-DHL-1 (30 nM); for reversibility of induced ALK fusion protein degradation after washout: 100 nM for 2 h, PBS wash, fresh medium; for effect on NPM-ALK fusion protein levels, concentration dependence: SU-DHL-1 cells, 1, 3, 10, 30 or 100 nM; for effect on NPM-ALK fusion protein levels, concentration dependence / effect on ALK fusion protein levels, concentration dependence / significantly reduced ALK fusion protein levels (degraders vs negative controls): 16 h; for rescue of induced NPM-ALK degradation by pomalidomide, MLN4924 and MG-132 / rescue of induced ALK fusion protein degradation by MG-132 and MLN4924: 2 h pre-treatment, then 100 nM compound for 6 h; for effect on ALK fusion protein levels, concentration dependence: SU-DHL-1 cells, 0, 10, 20, 40, 80 and 160 nM
T1 construct: endogenous in cells; host or cells: SU-DHL-1; the other entry of the earlier key: NPM1 (P06748, Nucleophosmin)
T1 sequence (Q9UM73 with tags, fused parts or gaps): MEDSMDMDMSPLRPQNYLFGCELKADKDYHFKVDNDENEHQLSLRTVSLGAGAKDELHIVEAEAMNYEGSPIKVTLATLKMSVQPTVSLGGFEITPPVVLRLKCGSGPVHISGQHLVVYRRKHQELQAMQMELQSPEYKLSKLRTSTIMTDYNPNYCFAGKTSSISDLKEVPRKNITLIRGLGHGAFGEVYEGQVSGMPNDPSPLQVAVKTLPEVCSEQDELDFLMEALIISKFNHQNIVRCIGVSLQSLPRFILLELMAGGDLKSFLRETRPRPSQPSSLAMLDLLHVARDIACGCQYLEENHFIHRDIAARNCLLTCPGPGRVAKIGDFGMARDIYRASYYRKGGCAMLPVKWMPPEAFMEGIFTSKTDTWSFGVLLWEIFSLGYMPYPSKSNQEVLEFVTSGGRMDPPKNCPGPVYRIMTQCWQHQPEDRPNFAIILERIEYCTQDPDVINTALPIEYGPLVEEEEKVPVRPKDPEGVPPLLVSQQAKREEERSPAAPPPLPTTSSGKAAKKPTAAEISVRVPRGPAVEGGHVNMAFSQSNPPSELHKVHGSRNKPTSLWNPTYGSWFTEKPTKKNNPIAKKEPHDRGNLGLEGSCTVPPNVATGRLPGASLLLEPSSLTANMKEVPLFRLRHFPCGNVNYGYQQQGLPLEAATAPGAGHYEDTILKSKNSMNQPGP
How it was run: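 SU-DHL-1 cells treated with DMSO or compound serial dilutions for 16 h, or at 30 nM or 100 nM for varying times. NPM-ALK and phospho-ALK (Tyr1507) levels measured by Western blot and normalized to GAPDH.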

[1] = target: T2, EML4-ALK v3 fusion protein (Homo sapiens, UniProt Q9UM73); assay: Western blot of EML4-ALK v3 fusion protein levels in NCI-H2228 cells; format: cell-based; details: for effect on EML4-ALK fusion protein levels, time dependence: NCI-H2228 cells, 0, 2, 4, 8, 16 and 24 h; for effect on EML4-ALK fusion protein levels, concentration dependence: NCI-H2228 cells, 1, 3, 10, 30 or 100 nM, 16 h
T2 construct: endogenous in cells; host or cells: NCI-H2228
T2 sequence (Q9UM73 1058-1620 limits assumed): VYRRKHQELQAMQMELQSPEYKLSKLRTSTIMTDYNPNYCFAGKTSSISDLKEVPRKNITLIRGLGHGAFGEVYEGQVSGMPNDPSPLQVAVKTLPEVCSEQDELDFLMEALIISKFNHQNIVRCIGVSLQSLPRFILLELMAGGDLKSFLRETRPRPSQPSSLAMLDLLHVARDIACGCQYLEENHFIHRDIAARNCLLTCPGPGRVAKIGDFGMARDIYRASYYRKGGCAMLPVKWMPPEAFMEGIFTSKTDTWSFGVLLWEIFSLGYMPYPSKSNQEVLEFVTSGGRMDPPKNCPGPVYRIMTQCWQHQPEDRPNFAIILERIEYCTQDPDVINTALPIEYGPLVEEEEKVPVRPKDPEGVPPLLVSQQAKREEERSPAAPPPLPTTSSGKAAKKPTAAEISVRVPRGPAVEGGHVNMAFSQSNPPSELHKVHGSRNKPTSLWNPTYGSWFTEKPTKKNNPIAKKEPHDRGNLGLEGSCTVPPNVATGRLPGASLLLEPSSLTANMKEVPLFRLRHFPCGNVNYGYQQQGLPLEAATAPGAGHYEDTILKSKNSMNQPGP
Procedure: Cells were cultured in a 37° C. incubator with 5% CO2.
Cells were washed with cold PBS once and lysed in 1× Laemmli loading buffer directly. […] Membrane was blocked in 5% milk in Tris-buffered saline and Tween 20 (TBST) for 1 h at room temperature, followed by incubation with a primary antibody overnight at 4° C., and a horseradish peroxidase (HRP)-conjugated secondary antibody for 1 h at room temperature. The membrane was imaged by a ChemiDoc MP imaging system (BIO-RAD). Antibodies against GAPDH (abeam), Phospho-ALK (Tyr1507), ALK (Cell Signaling Technology), Tubulin (Santa Cruz) were purchased commercially.
Cells were 70% confluent and treated with DMSO or indicated serial dilutions of compounds for 16 h. The EML4-ALK fusion protein levels were determined by Western blot and normalized against GPADH (right panel).

Phospho-ALK (Tyr1507) = target: T3, Phospho-ALK (Tyr1507) (Homo sapiens, UniProt Q9UM73); assay: Western blot of ALK phosphorylation at Tyr1507 (ALK activity) in SU-DHL-1 cells; format: cell-based; details: 3 nM, 16 h
T3 construct: endogenous in cells; host or cells: SU-DHL-1; the other entry of the earlier key: NPM1 (P06748, Nucleophosmin)
Procedure: Cells were washed with cold PBS once and lysed in 1× Laemmli loading buffer directly. Lysates were heated at 99° C. for […], and resolved on 4-15% precast SDS-PAGE (BIO-RAD) and transferred onto PVDF membrane. Membrane was blocked in 5% milk in Tris-buffered saline and Tween 20 (TBST) for 1 h at room temperature, followed by incubation with a primary antibody overnight at 4° C., and a horseradish peroxidase (HRP)-conjugated secondary antibody for 1 h at room temperature. The membrane was imaged by a ChemiDoc MP imaging system (BIO-RAD). Antibodies against GAPDH (abeam), Phospho-ALK (Tyr1507), ALK (Cell Signaling Technology), Tubulin (Santa Cruz) were purchased commercially.
SU-DHL-1 cells were seeded in 12-well plates at a density of 4×10^5/mL and treated with DMSO or indicated serial dilutions of compounds for 16 h. The NPM-ALK fusion protein levels were determined by Western blot and normalized against GPADH (right panel).

SU-DHL-1 cells = assay: Cell viability assay in SU-DHL-1 cells; format: cell-based; details: for cell viability inhibition compared with negative controls / inhibition of cell viability: 3 days; for cell viability inhibition compared with negative controls / GI50: CellTiter-Glo; for GI50: Homo sapiens, 60 h, 2.5 days, read-out: GI50 (drug concentration that results in 50% growth inhibition)
Procedure: (§1) SU-DHL-1 cells were seeded in 96-well plates at a density of 1×10^4 cells per well, in triplicate. Treated cells with DMSO or indicated serial dilutions of compounds for 2.5 days. Cell growth/survival was measured by using the CellTiter-Glo luminescent cell viability assay following the manufacturer's instructions (Promega) or CCK8 cell viability assay (Sigma). Data was analyzed by using the GraphPad Prism software, Error bars represent ±SD for triplicate experiments.
as §1, with “assay.” for “assay following the manufacturer's instructions (Promega) or CCK8 cell viability assay (Sigma).”, “experiments (left panel).” for “experiments.”
SU-DHL-1 cells were seeded in 96-well plates at a density of 5000 cells per well, in triplicate. The cells were treated with DMSO or indicated serial dilutions of compounds for 3 days. Cell growth was measured using the CellTiter-Glo luminescent cell viability assay. Data were analyzed using the GraphPad Prism.
(§2) SU-DHL-1 and NCI-3122 cells were treated with DMSO or indicated serial dilutions of compounds for 3 days. Data were analyzed using the GraphPad Prism.

ALK = assay: Characterization of ALK degraders in ALCL and NSCLC cells (summary); format: cell-based; details: summary statement
From the text: Specific exemplary ALK degraders/disruptors were characterized in various different anaplastic large cell lymphoma (ALCL) cells and non-small cell lung cancer (NSCLC) cells (Examples 4-19, FIGS. 1-18). […] This efficacy in suppressing ALK expression and ALK activity correlated with efficacy in inhibiting cancer cell proliferation.

ALK fusion protein = target: T4, ALK fusion protein (Homo sapiens, UniProt Q9UM73); assay: Western blot of ALK fusion protein levels in NCI-H3122 cells; format: cell-based; details: for Dmax at 0.5 µM: NCI-H3122, NCI-H3122 cells, read-out: ALK fusion protein degradation, NCI-H3122 (500 nM); for effect on ALK fusion protein levels, concentration dependence: NCI-H3122 cells, 0, 50, 100, 200, 400 and 800 nM; for effect on ALK fusion protein levels, concentration dependence / significantly reduced ALK fusion protein levels (degraders vs negative controls): 16 h
T4 construct: endogenous in cells; host or cells: NCI-H3122; the other entry of the earlier key: EML4 (Q9HC35, Echinoderm microtubule-associated protein-like 4)
T4 sequence (Q9UM73 with tags, fused parts or gaps): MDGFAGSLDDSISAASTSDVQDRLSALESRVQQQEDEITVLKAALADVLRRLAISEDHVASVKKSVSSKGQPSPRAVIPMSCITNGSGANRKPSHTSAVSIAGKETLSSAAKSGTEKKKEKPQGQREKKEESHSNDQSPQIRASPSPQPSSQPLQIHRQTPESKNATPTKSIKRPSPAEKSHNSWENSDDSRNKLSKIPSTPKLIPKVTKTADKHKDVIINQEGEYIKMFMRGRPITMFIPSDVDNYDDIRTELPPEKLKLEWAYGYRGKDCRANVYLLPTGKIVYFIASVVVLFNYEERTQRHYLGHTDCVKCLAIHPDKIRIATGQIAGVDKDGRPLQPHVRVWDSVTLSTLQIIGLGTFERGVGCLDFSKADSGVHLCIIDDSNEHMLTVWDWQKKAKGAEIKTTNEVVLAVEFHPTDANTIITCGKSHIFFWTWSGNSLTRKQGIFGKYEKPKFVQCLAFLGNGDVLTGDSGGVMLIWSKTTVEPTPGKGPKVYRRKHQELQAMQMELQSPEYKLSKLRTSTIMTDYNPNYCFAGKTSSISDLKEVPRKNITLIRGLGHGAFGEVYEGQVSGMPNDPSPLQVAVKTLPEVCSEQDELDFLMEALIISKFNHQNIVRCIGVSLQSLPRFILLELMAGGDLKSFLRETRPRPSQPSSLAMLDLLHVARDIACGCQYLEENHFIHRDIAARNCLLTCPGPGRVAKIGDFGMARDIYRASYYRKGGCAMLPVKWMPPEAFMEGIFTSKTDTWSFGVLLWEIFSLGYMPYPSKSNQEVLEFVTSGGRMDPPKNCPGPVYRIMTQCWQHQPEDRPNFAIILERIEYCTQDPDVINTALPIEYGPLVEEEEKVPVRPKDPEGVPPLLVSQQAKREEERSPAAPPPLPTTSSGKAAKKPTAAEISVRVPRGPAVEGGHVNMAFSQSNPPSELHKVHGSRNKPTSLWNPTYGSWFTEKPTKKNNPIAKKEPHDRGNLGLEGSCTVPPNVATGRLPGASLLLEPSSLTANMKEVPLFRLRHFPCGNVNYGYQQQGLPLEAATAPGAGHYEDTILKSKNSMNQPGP

NCI-H3122 cells = assay: Cell viability assay in NCI-H3122 cells; format: cell-based; details: 3 days
Procedure: SU-DHL-1, NCI-H3122 and NCI-H2228 cells were cultured in RPMI-1640 medium supplemented with 10% fetal bovine serum, 50 μg/mL penicillin and streptomycin. Cells were cultured in a 37° C. incubator with 5% CO2.
as §2

[2] = Standard PK study in mice, plasma concentrations; format: in vivo, male Swiss Albino mice; details: single 50 mg/kg intraperitoneal (IP) injection, 30 min to 12 h
Procedure: Standard PK studies were conducted using male Swiss Albino mice. […] Error bars represent ±SD for triplicate samples.

Row | SMILES | effect on NPM-ALK fusion protein levels, time dependence (NPM-ALK fusion protein) | Dmax at 0.03 µM (NPM-ALK fusion protein) [%] | reversibility of induced ALK fusion protein degradation after washout (NPM-ALK fusion protein) | effect on NPM-ALK fusion protein levels, concentration dependence (NPM-ALK fusion protein) | rescue of induced NPM-ALK degradation by pomalidomide, MLN4924 and MG-132 (NPM-ALK fusion protein) | effect on EML4-ALK fusion protein levels, time dependence [1] | effect on EML4-ALK fusion protein levels, concentration dependence [1] | inhibition of ALK activity (phosphorylation at Tyr1507) (Phospho-ALK (Tyr1507)) | cell viability inhibition compared with negative controls (SU-DHL-1 cells) | GI50 (SU-DHL-1 cells) [nM] | suppressing both ALK expression and ALK activity (ALK) | effect on ALK fusion protein levels, concentration dependence (NPM-ALK fusion protein) | Dmax at 0.5 µM (ALK fusion protein; 500 nM, Western blot) [%] | effect on ALK fusion protein levels, concentration dependence (ALK fusion protein) | inhibition of cell viability (SU-DHL-1 cells) | inhibition of cell viability (NCI-H3122 cells) | rescue of induced ALK fusion protein degradation by MG-132 and MLN4924 (NPM-ALK fusion protein) | significantly reduced ALK fusion protein levels (degraders vs negative controls) (NPM-ALK fusion protein) | significantly reduced ALK fusion protein levels (degraders vs negative controls) (ALK fusion protein; NCI-H3122 cells) | further results
1 | Cc1cc(Nc2ncc(Cl)c(Nc3ccccc3S(=O)(=O)C(C)C)n2)c(OC(C)C)cc1C1CCN(CC(=O)NCCOCCOCCOCCOCCOCCNc2cccc3c2C(=O)N(C2CCC(=O)NC2=O)C3=O)CC1 (centres unmarked) [CZ40-77, 2-(4-(4-((5-Chloro-4-((2-(isopropylsulfonyl)phenyl)amino)pyrimidin-2-yl)amino)-5-isopropoxy-2-methylphenyl)piperidin-1-yl)-N-(17-((2-(2,6-dioxopiperidin-3-yl)-1,3-dioxoisoindolin-4-yl)amino)-3,6,9,12,15-pentaoxaheptadecyl)acetamide] | time-dependently reduced | > 80 | Reversible | concentration-dependently reduced | significantly rescued | time-dependently reduced | concentration-dependently reduced | strongly inhibited | better cell viability inhibition | < 40 | especially effective | – | – | – | – | – | – | – | – | –
2 | Cc1cc(Nc2ncc(Cl)c(Nc3ccccc3S(=O)(=O)C(C)C)n2)c(OC(C)C)cc1C1CCN(C(=O)CCCCC(=O)N[C@H](C(=O)N2C[C@H](O)C[C@H]2C(=O)N[C@@H](C)c2ccc(-c3scnc3C)cc2)C(C)(C)C)CC1 [HC58-100] | – | – | – | – | – | – | – | – | – | – | especially effective | concentration-dependently reduced | > 80 | concentration-dependently reduced | significantly inhibited | significantly inhibited | – | – | – | –
3 | Cc1cc(Nc2ncc(Cl)c(Nc3ccccc3S(=O)(=O)C(C)C)n2)c(OC(C)C)cc1C1CCN(C(=O)CCCCC(=O)N[C@H](C(=O)N2C[C@H](O)C[C@H]2C(=O)NCc2ccc(-c3scnc3C)cc2)C(C)(C)C)CC1 [CZ47-24, (2S,4R)-1-((S)-2-(6-(4-(4-((5-Chloro-4-((2-(isopropylsulfonyl)phenyl)amino)pyrimidin-2-yl)amino)-5-isopropoxy-2-methylphenyl)piperidin-1-yl)-6-oxohexanamido)-3,3-dimethylbutanoyl)-4-hydroxy-N-(4-(4-methylthiazol-5-yl)benzyl)pyrrolidine-2-carboxamide] | – | – | – | – | – | – | – | – | – | – | especially effective | concentration-dependently reduced | > 80 | concentration-dependently reduced | significantly inhibited | significantly inhibited | significantly rescued | significantly reduced | significantly reduced | –
4 | Cc1cc(Nc2ncc(Cl)c(Nc3ccccc3S(=O)(=O)C(C)C)n2)c(OC(C)C)cc1C1CCN(CC(=O)NCCNc2cccc3c2C(=O)N(C2CCC(=O)NC2=O)C3=O)CC1 (centres unmarked) [CZ40-78, 2-(4-(4-((5-Chloro-4-((2-(isopropylsulfonyl)phenyl)amino)pyrimidin-2-yl)amino)-5-isopropoxy-2-methylphenyl)piperidin-1-yl)-N-(2-((2-(2,6-dioxopiperidin-3-yl)-1,3-dioxoisoindolin-4-yl)amino)ethyl)acetamide] | time-dependently reduced | > 80 | Reversible | concentration-dependently reduced | significantly rescued | time-dependently reduced | concentration-dependently reduced | strongly inhibited | better cell viability inhibition | < 40 | especially effective | – | – | – | – | – | – | – | – | bioavailability in mice [2]: Bioavailable
5 | Cc1cc(Nc2ncc(Cl)c(Nc3ccccc3S(=O)(=O)C(C)C)n2)c(OC(C)C)cc1C1CCN(C(=O)COCCOCC(=O)N[C@H](C(=O)N2C[C@H](O)C[C@H]2C(=O)NCc2ccc(-c3scnc3C)cc2)C(C)(C)C)CC1 [CZ47-15, (2S,4R)-1-((S)-2-(2-(2-(2-(4-(4-((5-Chloro-4-((2-(isopropylsulfonyl)phenyl)amino)pyrimidin-2-yl)amino)-5-isopropoxy-2-methylphenyl)piperidin-1-yl)-2-oxoethoxy)ethoxy)acetamido)-3,3-dimethylbutanoyl)-4-hydroxy-N-(4-(4-methylthiazol-5-yl)benzyl)pyrrolidine-2-carboxamide] | – | – | – | – | – | – | – | – | – | – | especially effective | concentration-dependently reduced | – | concentration-dependently reduced | significantly inhibited | significantly inhibited | significantly rescued | significantly reduced | significantly reduced | ALK fusion protein degradation, NCI-H3122 (500 nM) (ALK fusion protein; NCI-H3122 cells, 500 nM, Western blot): ++ (Protein degradation >80%)
